Test results from BindingDB's records for doi:10.1016/s1074-5521(97)90198-8 (Massachusetts Institute of Technology, 1997).

target: Methionine aminopeptidase 2 (Homo sapiens, UniProt P50579); experiment: Enzymatic Assay; settings: pH 7.35; 37 °C
From the text: Enzymatic assay using recombinant human type 2 methionine aminopeptidase (MetAP2).

Methionine aminopeptidase 2, sequence (P50579 whole entry): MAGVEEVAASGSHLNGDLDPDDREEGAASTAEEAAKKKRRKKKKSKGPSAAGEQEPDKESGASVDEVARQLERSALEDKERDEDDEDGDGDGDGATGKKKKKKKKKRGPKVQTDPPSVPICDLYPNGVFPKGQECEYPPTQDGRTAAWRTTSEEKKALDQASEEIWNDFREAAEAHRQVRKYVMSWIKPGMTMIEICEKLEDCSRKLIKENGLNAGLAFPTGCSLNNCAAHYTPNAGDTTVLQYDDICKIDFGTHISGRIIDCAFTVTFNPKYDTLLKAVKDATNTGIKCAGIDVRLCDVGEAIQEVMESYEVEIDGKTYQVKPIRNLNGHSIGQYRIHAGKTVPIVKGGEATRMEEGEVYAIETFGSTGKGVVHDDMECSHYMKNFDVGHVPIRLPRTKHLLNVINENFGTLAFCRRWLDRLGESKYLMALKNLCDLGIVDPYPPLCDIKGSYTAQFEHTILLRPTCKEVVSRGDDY

First: CO[C@H]1C([C@]2(C)OC2CC=C(C)C)[C@]2(CC[C@H]1OC(=O)CCCCl)CO2 (stereo not given in full) [FOS-70]
Second: CO[C@H]1C([C@]2(C)OC2CC=C(C)C)[C@]2(CC[C@H]1OC(=O)NC(=O)CCl)CO2 (stereo not given in full) [AGM-1470]
The IC50 of the first is 3.5-fold higher: 3.5 nM for the first, 1 nM for the second.

First: CO[C@H]1C([C@]2(C)OC2CC=C(C)C)[C@@](O)(SC)CC[C@H]1O (stereo not given in full) [FOS-202]
Second: CO[C@H]1C([C@]2(C)OC2CC=C(C)C)[C@]2(CC[C@H]1O)CO2 (stereo not given in full) [FOS-37]
The IC50 of the first is 620-fold higher: 5000 nM for the first, 8 nM for the second.

Going from `CO[C@@H]1[C@H](OC(=O)CCCCl)CC[C@]2(CO2)[C@@]1(O)[C@]1(C)OC1CC=C(C)C` (stereo not given in full) [FOS-69] to `CO[C@@H]1[C@H](OC(=O)NC(=O)CCl)CC[C@]2(CO2)[C@@]1(O)[C@]1(C)OC1CC=C(C)C` (stereo not given in full) [FOS-68], the IC50 rises from 0.1 nM to 2 nM (20-fold).

First: CO[C@@H]1[C@H](O)CC[C@]2(CO2)[C@@]1(O)[C@]1(C)OC1CC=C(C)C (stereo not given in full) [FOS-34]
Second: CO[C@@H]1[C@H](O)CC[C@](O)(SC)[C@@]1(O)[C@]1(C)OC1CC=C(C)C (stereo not given in full) [FOS-201]
The IC50 of the first is 11-fold lower: 4 nM for the first, 45 nM for the second. The first is the more potent here.

Compared with `CO[C@H]1C([C@]2(C)OC2CC=C(C)C)[C@@](O)(SC)CC[C@H]1OC(=O)NC(=O)CCl` (stereo not given in full) [FOS-64], `CO[C@@H]1C(=O)CC[C@]2(CO2)C1[C@]1(C)OC1CC=C(C)C` (stereo not given in full) [FOS-72] is 500-fold lower in IC50: 3000 nM for the first, 6 nM for the second. The second is the more potent here.
